Data on 5 molecules can be found in US20220280625A1 (Northwestern University, priority 2019, published 2022).

Bridge positions count the residues as written; N and C are the ends. Square brackets hold non-standard residues; d marks the D form. Ends that are not written are not given here. Peptide text beside a SMILES is read from it. * marks the point of attachment. X1 = O=C1[C@@H]2[C@H](C(=O)N1CCCCCC(=O)*)[C@H]1C=C[C@@H]2C1; d(aIle) = CC[C@H](C)[C@@H](N)C(=O)O

In data set [1] the target is T1, thermolysin (Bacillus thermoproteolyticus, UniProt P00800).
T1 sequence (P00800 233-548): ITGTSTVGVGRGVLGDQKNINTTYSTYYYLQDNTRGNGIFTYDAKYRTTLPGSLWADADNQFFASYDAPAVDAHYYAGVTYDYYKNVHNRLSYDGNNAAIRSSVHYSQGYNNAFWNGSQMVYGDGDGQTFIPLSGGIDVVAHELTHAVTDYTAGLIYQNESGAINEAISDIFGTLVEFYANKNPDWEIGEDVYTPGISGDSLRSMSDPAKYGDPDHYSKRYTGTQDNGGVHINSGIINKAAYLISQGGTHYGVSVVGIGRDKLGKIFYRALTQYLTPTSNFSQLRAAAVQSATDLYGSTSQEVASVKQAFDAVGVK
Protocol: To discern the relationship between backbone structure and peptide stability against proteolysis, enzyme kinetics of each peptide brush polymer with different backbones were measured in PBS buffer with added protease (i.e., thermolysin).
For enzyme-triggered cleavage experiments, the molar ratio of thermolysin to peptide was set to 1:200. Moreover, the temperature was set to 37° C. […] Then thermolysin (0.1 mg, 3.0 nmol, 1 equiv.) was added into the polymer solution which was stirred in a preheated oil bath at 37° C.

Data set [2] has as its system elastase. Kind of data set: in vitro. The note with it: isolated enzyme elastase, pH 7.2.
Protocol: Enzymatic cleavage. Elastase was chosen as a model protease since it can cleave the three glycine fragment for easy recognition of cleavage product which is also similar to the natural initial cleavage product in serum. Remaining peptide percentage was measured by the ratio between the area under the curve at each time point and the area under the curve of the first time point.
Twenty microliters (20 μL) of elastase (1 mM), 20 μL of monomer (FIG. 9A) or polymer (FIG. 9B) (2 mM), 20 μL Tris buffer (250 mM Tris pH 7.2, 1500 mM NaCl, 500 mM CaCl2)) and 140 μL of water were added to a HPLC vial and loaded in the autosampler carousel and a sample immediately taken for injection at 1 min. Subsequently, the reaction was monitored via RP-HPLC (10-80% buffer B) with an injection every 50 minutes following the initial injection.
The ratio of the AUC at each time point relative to the first time point is plotted.
The subject of data set [3] is elastase. Kind of data set: 20 μL of elastase (1 mM), 20 μL Tris buffer (250 mM Tris pH 7.2, 1500 mM NaCl, 500 mM CaCl2) and 140 μL of water. The note with it: up to 550 min.
The nature of data set [4]: Systolic blood pressure by tail-cuff system in mice. Type of data set: in vivo, C57BL/6 mice. Particulars: intraperitoneal injection, measured for 20 minutes. The method, then:
Healthy C57BL/6 mice were injected with either terlipressin peptide or terlipressin PLP and the systolic blood pressure was measured over time by employing a tail-cuff system (CODA™). The mice were anesthetized with ketamine and placed in restraints over a heated pad. Following 5 minutes of background measurements, the drugs were administrated by intraperitoneal injection (IP) and the measurements continued for another 20 minutes (limited by the effect of ketamine). The delta BP was measured and plotted as a function of time.

The conditions of data set [5]: human, in vivo; cited from earlier work.
The next data set deals with choroidal angiogenesis. Kind of data set: Ex vivo choroidal sprouting assay. The data set is classed as cell-based. Particulars: FIGS. 24B-24D. The method, then:
Ex vivo choroidal sprouting assay. As a first step towards determining the anti-angiogenic properties of the ABT898 PLPs, we performed an ex vivo choroidal sprouting assay. Briefly, eyes are enucleated, dissection is performed to remove the cornea, iris, lens, retina, and vitreous. The peripheral RPE-choroid-sclera complex is plated in Matrigel, angiogenesis develops spontaneously over Day 4-Day 7, and can be quantitated using reverse phase brightfield microscopy (FIG. 24A). ABT898 peptide had no effect upon choroidal angiogenesis (FIGS. 24B and 24C). Alternatively, ABT898 Ester and Amide PLPs, which are not hydrolysable, reduced angiogenesis by 24% and 81%, respectively. Cell penetrating peptides that are rich in arginine residues, aid the cellular penetration of cargo via endocytosis. In order to enhance the cellular penetration capacity and the solubility of the PLPs we modified the C-terminus with arginine moieties. […] Without wishing to be bound by any particular theory, we believe this is because the peptide alone is degraded in the Matrigel milieu. […] In addition, we performed a dose dependent analysis of growth area at Day 4 for treatment with ABT898 amide RR PLP, and the results are shown in FIG. 25.
Ex Vivo Choroidal Sprouting Assay: Anti-VEGF PLPs. […]

The target in data set [6] is T1, thermolysin. Nature of the data set: Enzyme degradation kinetics of ABT898 peptide and PLP with thermolysin (HPLC). The data set is classed as in vitro ADME. Particulars: 200 μM stock, thermolysin 0.1 μM, over 450 min; PLP = AR PLP (FIG. 26A). The method, then:
FIGS. 26A-26B. Enzyme degradation kinetics and BLI assay. FIG. 26A. Percent enzymatic cleavage of peptide and PLP (AR PLP) upon the treatment of thermolysin (peptide:enzyme=2000:1) was monitored by HPLC over 450 min. FIG. 26B. Bio-layer interferometry data measuring the binding constant between AR PLP and CD36 receptor.
Enzyme Degradation Kinetics. An important feature of the PLP platform is that the globular structure of peptides arranged on a polymeric scaffold impart high proteolytic resistance. We performed an enzyme resistance assay to confirm that the PLP is resistant to proteolysis as compared to the peptide alone. Both peptide and PLP stock solutions (200 μM) were treated with thermolysin enzyme (0.1 μM) and their degradation profiles were monitored using high performance liquid chromatography (HPLC). […] We calculated the area under the peak at each time point to construct the percent cleaved and plotted it against time for both peptide and PLP (FIG. 26A).

For the molecule “poly(PepNorIm15): peptide brush polymer of GPLGLAGGWGERDGS norbornene dicarboxyimide monomer, DP 15 (also: peptide is a side chain of a norbornene dicarboxyimide brush polymer, DP 15)”, the “proteolytic stability against thermolysin” value with thermolysin [1] was “demonstrated resistance to proteolysis”. By amount remaining is commonly meant what is left of the initial amount, in per cent. In turn, `NCCCC[C@H](NC(=O)[C@@H]1CCCN1C(=O)[C@@H]1CSSC[C@H](NC(=O)CNC(=O)CNC(=O)CNC(=O)CCCCCN2C(=O)[C@@H]3[C@H](C2=O)[C@H]2C=C[C@@H]3C2)C(=O)N[C@@H](Cc2ccc(O)cc2)C(=O)N[C@@H](Cc2ccccc2)C(=O)N[C@@H](CCC(N)=O)C(=O)N[C@@H](CC(N)=O)C(=O)N1)C(=O)NCC(N)=O` [terlipressin peptide monomer] (X1-GGGCYFQNCPKG-NH2; disulfide 4-9) gave a share remaining at 550 min, 0.2 mM in the data set with elastase [2] of approximately 50%. Regarding GGGCYFQNCPKG, the cleaved bond result in the data set with elastase [3] was “G-C”. For the molecule `NCCCC[C@H](NC(=O)[C@@H]1CCCN1C(=O)[C@@H]1CSSC[C@H](NC(=O)CNC(=O)CNC(=O)CN)C(=O)N[C@@H](Cc2ccc(O)cc2)C(=O)N[C@@H](Cc2ccccc2)C(=O)N[C@@H](CCC(N)=O)C(=O)N[C@@H](CC(N)=O)C(=O)N1)C(=O)NCC(N)=O` [terlipressin, Terlipressin] (H-GGGCYFQNCPKG-NH2; disulfide 4-9), the “change in systolic blood pressure over time (delta BP)” value in data set [4] is “immediate and very large increase in blood pressure, which dropped rapidly in a manner of few minutes”. In data set [5], the distribution half-life is 8 min and the elimination half-life is 6 min. “ABT898 peptide: synthetic peptide GVi(allo)SQIRP which mimics the TSP1 type-1 repeat (GV[d(aIle)]SQIRP) [reference compound]”: the “effect upon choroidal angiogenesis” value in the data set with choroidal angiogenesis was “no effect”. The “degradation by thermolysin (HPLC peak over time)” value with thermolysin [6] was “rapid degradation”.
